Data on 1 compound can be found in patent publication US8598115B2, “Cyclic compound and salt thereof” (Astellas Pharma Inc., priority 2008, dated 2013).

SMILES strings stand for the structures. Square brackets hold non-standard residues; d marks the D form. Peptide text beside a SMILES is read from it. Orn(N5-OH,N5-Ac) = CC(=O)N(O)CCC[C@H](N)C(=O)O

This test has as its system Aspergillus fumigatus FP1305. Briefly: Antifungal activity, broth microdilution method. The test is classed as cell-based. As to the method: Antifungal activities for test fungi shown in Table 15 was determined by a broth microdilution method (Hikaru Kume and Toshikazu Yamazaki, Clinical Microbiology, Vol. 21, No. 5, pp. 573-580, 1994).

On to `CC(=O)N([O-])CCC[C@@H]1NC(=O)CNC(=O)CNC(=O)CNC(=O)[C@H](CCCN([O-])C(C)=O)NC(=O)[C@H](CCCN([O-])C(C)=O)NC1=O.[Fe+3]` [ferrichrome, Ferrichrome] (cyclo(GGG[Orn(N5-OH,N5-Ac)][Orn(N5-OH,N5-Ac)][Orn(N5-OH,N5-Ac)])), for which the “MEC (minimum effective concentration)” value is at least 50 µg/mL.
